Test results from US8093028B2, “Engineered glycosyltransferases with expanded substrate specificity” (Wisconsin Alumni Research Foundation, priority 2007, dated 2012).
Converted amounts (≈) assume the structure as drawn. Where two headings read alike, the source gives them in different places.

Legend:
[1] = Solubility limit of acceptors; format: physicochemical
OleD A242V = target: T1, OleD A242V (Streptomyces antibioticus, UniProt Q53685, A242V/P55A/R82V/R83E/T84P); assay: Rate of glucoside formation with acceptors (RP-HPLC); format: biochemical; conditions: 200 μM acceptor, 1 mM UDPG
T1 construct: made in house; host or cells: E. coli BL21(DE3)pLysS (error-prone PCR clone in pET28a)
Protocol: (§1) Enzyme assays for the determination of glycosyl transfer rate to FIG. 1: 4, Table 1: 27-32 were carried out in a total volume of 500 μl 50 mM Tris-HCl (pH8.0) containing 5 mM MgCl2, 200 μM acceptor, 1 mM UDPG, and 50 μg pure enzyme. Aliquots (100 μl) were removed between 0 and 30 min, at which time product formation was still linear with respect to time, and quenched with 90 μl of an 8:1 mixture of ice-cold MeOH/HCl, and centrifuged at 14,000 rpm for 10 min. Supernatants were analyzed by analytical reverse-phase HPLC with a 250 mm×4.6 mm Gemini […] C18 column (Phenomenex, Torrance, Calif.) using a gradient of 10-90% CH3CN in 0.1% trifluoroacetic acid (TFA)/H2O in 20 min at 1 ml/min, with detection at 254 nm. HPLC peak areas were integrated, and the product concentration calculated as a percent of the total peak area. Product identity was confirmed by co-elution with a commercial standard when available and, in all cases, by LC-MS (FIG. 8).
(§2) Reaction conditions for assay of macrolide glycosylation were identical to that for FIG. 1: 1, except that typically, less enzyme was used (1-10 μg) and reactions were quenched with an equal volume of ice-cold MeOH. Centrifuged reaction mixtures were analyzed by analytical reverse-phase HPLC with a Gemini 5μ C18 column (Phenomenex) using a gradient of 0-90% CH3CN in 50 mM NH3COOH over 30 min at 1 ml/min. Products and acceptor macrolide were detected by evaporative light scattering detection (ELSD) using a drift tube temperature of 105° C. and a nitrogen flow of 2.5 ml/min. All products were characterized by APCI LC-MS on an Agilent 1100 Series LC/MSD quadrapole mass spectrometer connected to a UV detector. Quenched reaction mixtures were analyzed by reverse-phase HPLC with a 10 mm×4.6 mm Zorbax Extend 5μ C18 Analytical Guard Column (Agilent Technologies) using an isocratic gradient of 80% MeOH in 2 min at 1 ml/min, with detection at 254 nm.
(§3) Enzyme reactions were carried out in a total volume of 500 μl 50 mM Tris-HCl (pH8.0) containing 5 mM MgCl2, 200 μM acceptor, 1 mM UDPG, and 50 μg pure enzyme. Aliquots (100 μl) were removed between 0 and 30 min, and quenched with 90 μl of an 8:1 mixture of ice-cold MeOH/HCl for activity towards FIG. 1: 4, Table 1: 27-32, or with 90 μl of ice-cold MeOH for activity towards FIG. 1: 1, and the samples centrifuged at 14,000 rpm for 10 min.
(§4) For determination of activity to FIG. 1: 4, Table 1: 27-32, supernatants were analyzed by analytical reverse-phase HPLC with a Gemini 5μ C18 column (Phenomenex) using a gradient of 10-90% CH3CN in 0.1% trifluoroacetic acid (TFA)/H2O in 20 min, with detection at 254 nm. HPLC peak areas were integrated, and the product concentration calculated as a percent of the total peak area. All products were characterized by LC-MS. Mass spectra were obtained using electrospray ionization on an Agilent 1100 HPLC-MSD SL quadrapole mass spectrometer connected to a UV/Vis diode array detector. For LC-MS analysis, quenched reaction mixtures (see below) were analyzed by analytical reverse-phase HPLC with a 250 mm×4.6 mm Gemini 5μ C18 column (Phenomenex, Torrance, Calif.) using a gradient of 10-90% CH3CN in 0.1% formic acid/H2O in 20 min at 1 ml/min, with detection at 254 nm.
as §2, with “For determination” for “Reaction conditions for assay”, “activity toward” for “macrolide glycosylation were identical to that for”, “centrifuged” for “except that typically, less enzyme was used (1-10 μg) and reactions were quenched with an equal volume of ice-cold MeOH. Centrifuged”, “Compounds FIG. 1: 1” for “Products”, “3” for “acceptor macrolide”

OleD S132F = target: T2, OleD S132F (Streptomyces antibioticus, UniProt Q53685, P55A/R82V/R83E/S132F/T84P); assay: as above; format: biochemical; conditions: 200 μM acceptor, 1 mM UDPG
T2 construct: made in house; host or cells: E. coli (site-directed mutant of pET28/OleD)
Protocol: as §1, §2, §3, §4
as §2, with “For determination” for “Reaction conditions for assay”, “activity toward” for “macrolide glycosylation were identical to that for”, “centrifuged” for “except that typically, less enzyme was used (1-10 μg) and reactions were quenched with an equal volume of ice-cold MeOH. Centrifuged”, “Compounds FIG. 1: 1” for “Products”, “3” for “acceptor macrolide”

OleD P67T = target: T3, OleD P67T (Streptomyces antibioticus, UniProt Q53685, P55A/P67T/R82V/R83E/T84P); assay: as above; format: biochemical; conditions: 200 μM acceptor, 1 mM UDPG
T3 construct: made in house; host or cells: E. coli (site-directed mutant of pET28/OleD)
Protocol: as §1, §2, §3, §4
as §2, with “For determination” for “Reaction conditions for assay”, “activity toward” for “macrolide glycosylation were identical to that for”, “centrifuged” for “except that typically, less enzyme was used (1-10 μg) and reactions were quenched with an equal volume of ice-cold MeOH. Centrifuged”, “Compounds FIG. 1: 1” for “Products”, “3” for “acceptor macrolide”

WT OleD = target: T4, WT OleD (Streptomyces antibioticus, UniProt Q53685, P55A/R82V/R83E/T84P); assay: as above; format: biochemical; conditions: 200 μM acceptor, 1 mM UDPG
T4 construct: made in house; host or cells: E. coli BL21(DE3)pLysS, plasmid pET28/OleD
Protocol: as §1, §2, §3, §4
as §2, with “For determination” for “Reaction conditions for assay”, “activity toward” for “macrolide glycosylation were identical to that for”, “centrifuged” for “except that typically, less enzyme was used (1-10 μg) and reactions were quenched with an equal volume of ice-cold MeOH. Centrifuged”, “Compounds FIG. 1: 1” for “Products”, “3” for “acceptor macrolide”

OleD P67T/S132F/A242V = target: T5, OleD P67T/S132F/A242V (Streptomyces antibioticus, UniProt Q53685, A242V/P67T/S132F); assay: as above; format: biochemical; conditions: for Rate of glucoside formation, P67T/S132F/A242V: 200 μM acceptor, 1 mM UDPG
T5 construct: made in house; host or cells: E. coli (site-directed mutant of pET28/OleD)
Protocol: as §1, with “8). […]” for “8).”
as §3, §4
as §2, with “For determination” for “Reaction conditions for assay”, “activity toward” for “macrolide glycosylation were identical to that for”, “centrifuged” for “except that typically, less enzyme was used (1-10 μg) and reactions were quenched with an equal volume of ice-cold MeOH. Centrifuged”, “Compounds FIG. 1: 1” for “Products”, “3” for “acceptor macrolide”

Structure (SMILES) | solubility ([1]; aqueous with cosolvent or surfactant or cyclodextrin, in water/DMSO, read-out: solubility limit) [mM] | solubility ([1]; enzyme assay buffer (50 mM Tris-HCl with 5 mM MgCl2), pH 8, limited solubility in assay, read-out: solubility) [mM] | Rate of glucoside formation, A242V (OleD A242V) | Rate of glucoside formation, S132F (OleD S132F) | Rate of glucoside formation, P67T (OleD P67T) | Rate of glucoside formation, WT (WT OleD) | Rate of glucoside formation, P67T/S132F/A242V (OleD P67T/S132F/A242V) | specific activity, fold higher than WT OleD (OleD P67T/S132F/A242V; 4 and 2 as acceptor/donor) [fold] | Fold-improvement compared to WT OleD (OleD P67T/S132F/A242V; rate of P67T/S132F/A242V versus WT, UDPG donor) [fold] | solubility ([1]; in kinetic assay, read-out: solubility limit) [mM]
Cc1cc(=O)oc2cc(O)ccc12 [4-Me-umb (4), 7-hydroxy-4-methylcoumarin] | 10 (≈ 1760 µg/mL) | < 4 | 5.4 mmols/product formed/min/μg enzyme × 10^3 | 6.3 mmols/product formed/min/μg enzyme × 10^3 | 15.7 mmols/product formed/min/μg enzyme × 10^3 | 2.5 mmols/product formed/min/μg enzyme × 10^3 | 84 mmols/product formed/min/μg enzyme × 10^3 | ~30 | 33 | –
CC(C)=CCc1cc(C(=O)Nc2c(O)c3ccc(O)c(C)c3oc2=O)ccc1O [novobiocic acid (29), novobiocic acid] | – | – | 0.33 mmols/product formed/min/μg enzyme × 10^3 | 0.49 mmols/product formed/min/μg enzyme × 10^3 | 0.65 mmols/product formed/min/μg enzyme × 10^3 | 0.24 mmols/product formed/min/μg enzyme × 10^3 | 1.14 mmols/product formed/min/μg enzyme × 10^3 | – | – | 5 (≈ 1980 µg/mL)
